# Reference: ChEMBL document CHEMBL5154823, “Amphiphilic cyclic peptide [W4KR5]-Antibiotics combinations as broad-spectrum antimicrobial agents” (Eur J Med Chem, 2022)
# Calls of active or inactive are those of the source. The rule behind the calls is not given here. Where a SMILES comes first, the peptide text is derived from it. Bridges are numbered along the chain shown (N, C = ends). [ ]: non-standard residue; d: D form. The star is where a group is joined. X1 = C[C@H](O)[C@H]1C(=O)N2C(C(=O)*)=C(S[C@@H]3CN[C@H](C(=O)N(C)C)C3)[C@@H](C)[C@H]12; X2 = CC[C@H](C)CCCCC(=O)*; Dab = NCC[C@H](N)C(=O)O
# Assays:
# Pseudomonas aeruginosa [1] = experiment: Antibacterial activity against Pseudomonas aeruginosa ATCC 27883 assessed as reduction in microbial growth incubated for 24 hrs by microbroth dilution method; format: functional
# Klebsiella pneumoniae [2] = experiment: Antibacterial activity against imipenem resistant Klebsiella pneumoniae ATCC BAA 1705 assessed as reduction in microbial growth incubated for 24 hrs by microbroth dilution method; format: functional
# Escherichia coli [3] = experiment: Antibacterial activity against Escherichia coli ATCC 25922 assessed as reduction in microbial growth incubated for 24 hrs by microbroth dilution method; format: functional
# Staphylococcus aureus [4] = experiment: Antibacterial activity against Methicillin resistant Staphylococcus aureus ATCC BAA -1556 assessed as reduction in microbial growth incubated for 24 hrs by microbroth dilution method; format: functional
# Staphylococcus aureus [5] = experiment: Antibacterial activity against Staphylococcus aureus ATCC 29213 assessed as reduction in microbial growth incubated for 24 hrs by microbroth dilution method; format: functional
# HepaRG [6] = experiment: Cytotoxicity against human HepaRG cells assessed as assessed as reduction in cell viability at 10 ug/ml incubated for 24 hrs by microplate reader analysis; format: toxicity, cell-based; conditions: dose 10 µg/ml
# [7] = Hemolytic activity in human Red blood cell incubated for 2 hrs by spectrophotometric analysis; format: toxicity, cell-based, Erythrocyte; conditions: red blood cells (erythrocytes)
# Cell membrane [8] = experiment: Induction of membrane disruption in Pseudomonas aeruginosa ATCC BAA 1744 assessed as increase in PI positive cells at 4 times of MIC incubated for 2 hrs by Propidium iodide staining based FACS cytometry analysis relative to control; format: subcellular
# Cell membrane [9] = experiment: Induction of membrane disruption in Staphylococcus aureus ATCC BAA -1556 assessed as increase in PI positive cells at 4 times of MIC incubated for 2 hrs by Propidium iodide staining based FACS cytometry analysis relative to control; format: subcellular
# Pseudomonas aeruginosa [10] = experiment: Antibacterial activity against carbapenem resistant Pseudomonas aeruginosa ATCC BAA 1744 assessed as reduction in microbial growth incubated for 24 hrs by microbroth dilution method; format: functional
# [11] = Cytotoxicity against HEK293 cells assessed as effect on cell viability at 10 to 25 ug/ml incubated for 24 hrs by microplate reader analysis relative to control; format: toxicity, cell-based; conditions: human, at 10 to 25 µg/mL, dose 10-25 µg/ml, read-out: Activity
# HepaRG [12] = experiment: Cytotoxicity against human HepaRG cells assessed as assessed as reduction in cell viability at 50 to 150 ug/ml incubated for 24 hrs by microplate reader analysis relative to control; format: toxicity, cell-based; conditions: at 50 to 150 µg/mL, dose 50-150 µg/ml
# HEK293 [13] = experiment: Cytotoxicity against HEK293 cells assessed as effect on cell viability at 10 ug/ml incubated for 24 hrs by microplate reader analysis; format: toxicity, cell-based; conditions: human, hek293, 24 h, dose 10 µg/ml
# Escherichia coli [14] = experiment: Antibacterial activity against carbapenem and NDM-1 positive resistant Escherichia coli ATCC BAA 2452 assessed as reduction in microbial growth incubated for 24 hrs by microbroth dilution method; format: functional
# Klebsiella pneumoniae [15] = experiment: Antibacterial activity against Klebsiella pneumoniae ATCC 13883 assessed as reduction in microbial growth incubated for 24 hrs by microbroth dilution method; format: functional
# Staphylococcus aureus [16] = experiment: Bactericidal activity against methicillin resistant Staphylococcus aureus ATCC BAA 1556 assessed as reduction in bacterial growth at MIC measured after 16 hrs by Time kill assay; format: functional, organism-based
# Escherichia coli [17] = experiment: Bactericidal activity against Escherichia coli ATCC BAA 2452 assessed as decrease of bacterial growth at MIC measured after 15 hrs by Time kill assay; format: functional, organism-based
# HEK293 [18] = experiment: Cytotoxicity against HEK293 cells assessed as effect on cell viability at 10 to 200 ug/ml incubated for 24 hrs by microplate reader analysis; format: toxicity, cell-based; conditions: human, hek293, 24 h, dose 10-200 µg/ml
# Cell membrane [19] = experiment: Induction of membrane disruption in Pseudomonas aeruginosa ATCC BAA 1744 assessed as increase in PI positive cells at MIC incubated for 2 hrs by Propidium iodide staining based FACS cytometry analysis relative to control
# Pseudomonas aeruginosa [20] = experiment: Bactericidal activity against Pseudomonas aeruginosa ATCC BAA 1744 assessed as decrease of bacterial growth at MIC measured after 24 hrs by Time kill assay; format: functional, organism-based
# Cell membrane [21] = experiment: Induction of membrane disruption in Staphylococcus aureus ATCC BAA -1556 assessed as increase in PI positive cells at MIC incubated for 2 hrs by Propidium iodide staining based FACS cytometry analysis relative to control
Structure (SMILES),MIC (Pseudomonas aeruginosa [1]),MIC (Klebsiella pneumoniae [2]),MIC (Escherichia coli [3]),MIC (Staphylococcus aureus [4]),further results
CCCCCCCCCC(=O)N[C@@H](Cc1c[nH]c2ccccc12)C(=O)N[C@H](CC(N)=O)C(=O)N[C@@H](CC(=O)O)C(=O)N[C@@H]1C(=O)NCC(=O)N[C@@H](CCCN)C(=O)N[C@@H](CC(=O)O)C(=O)N[C@H](C)C(=O)N[C@@H](CC(=O)O)C(=O)NCC(=O)N[C@H](CO)C(=O)N[C@@H]([C@H](C)CC(=O)O)C(=O)N[C@@H](CC(=O)c2ccccc2N)C(=O)O[C@@H]1C,> 128 µg/mL,256 µg/mL,> 128 µg/mL,–,–
CC[C@H](C)CCCCC(=O)N[C@@H](CCN)C(=O)N[C@H](C(=O)N[C@@H](CCN)C(=O)N[C@H]1CCNC(=O)[C@H]([C@@H](C)O)NC(=O)[C@H](CCN)NC(=O)[C@H](CCN)NC(=O)[C@H](CC(C)C)NC(=O)[C@@H](Cc2ccccc2)NC(=O)[C@H](CCN)NC1=O)[C@@H](C)O (X2-[Dab]T[Dab][Dab][Dab][dF]L[Dab][Dab]T; lactam 4-C),1 µg/mL,1 µg/mL,2 µg/mL,64 µg/mL,–
C[C@H](O)[C@H]1C(=O)N2C(C(=O)NCCCC[C@@H]3NC(=O)[C@H](CCCNC(=N)N)NC(=O)[C@H](CCCNC(=N)N)NC(=O)[C@H](CCCNC(=N)N)NC(=O)[C@H](CCCNC(=N)N)NC(=O)[C@H](CCCNC(=N)N)NC(=O)[C@H](Cc4c[nH]c5ccccc45)NC(=O)[C@H](Cc4c[nH]c5ccccc45)NC(=O)[C@H](Cc4c[nH]c5ccccc45)NC(=O)[C@H](Cc4c[nH]c5ccccc45)NC3=O)=C(S[C@@H]3CN[C@H](C(=O)N(C)C)C3)[C@@H](C)[C@H]12 (cyclo(K(X1)WWWWRRRRR)),16 µg/mL,16 µg/mL,4 µg/mL,4 µg/mL,MIC (Staphylococcus aureus [5]): 2 µg/mL; Activity (HepaRG [6]): Non-Toxic; HC50 at 2 h [7]: 255 µg/mL; Activity (Cell membrane [8]): 26.4%; Activity (Cell membrane [9]): 29.6%; MIC (Pseudomonas aeruginosa [10]): 16 µg/mL; viability at 24 h [11]: 90%; Activity (HepaRG [12]): 69%; Activity (HEK293 [13]): Non-Toxic; MIC (Escherichia coli [14]): 8 µg/mL; MIC (Klebsiella pneumoniae [15]): 4 µg/mL
O=C(O)c1cn(C2CC2)c2cc(N3CCNCC3)c(F)cc2c1=O [CIPROFLOXACIN],–,–,64 µg/mL,–,–
CCC[C@@H]1C[C@@H](C(=O)N[C@@H]([C@H]2O[C@H](SC)[C@H](O)[C@@H](O)[C@H]2O)[C@H](C)Cl)N(C)C1 [CLINDAMYCIN],> 128 µg/mL,256 µg/mL,–,–,–
NC[C@H]1O[C@H](O[C@H]2[C@H](O)[C@@H](O[C@H]3O[C@H](CO)[C@@H](O)[C@H](N)[C@H]3O)[C@H](N)C[C@@H]2N)[C@H](O)[C@@H](O)[C@@H]1O [KANAMYCIN],> 128 µg/mL,64 µg/mL,32 µg/mL,> 128 µg/mL,–
C[C@H]1COc2c(N3CCN(C)CC3)c(F)cc3c(=O)c(C(=O)O)cn1c23.C[C@H]1COc2c(N3CCN(C)CC3)c(F)cc3c(=O)c(C(=O)O)cn1c23.O [LEVOFLOXACIN],–,64 µg/mL,64 µg/mL,> 128 µg/mL,–
C[C@@H](O)[C@H]1C(=O)N2C(C(=O)O)=C(S[C@@H]3CN[C@H](C(=O)N(C)C)C3)[C@H](C)[C@H]12 [MEROPENEM],1 µg/mL,–,1 µg/mL,2 µg/mL,MIC (Staphylococcus aureus [5]): 2 µg/mL; Activity (HepaRG [6]): Non-Toxic; HC50 at 2 h [7]: > 500 µg/mL; Activity (Staphylococcus aureus [16]): Active; Activity (Cell membrane [8]): 22.1%; Activity (Cell membrane [9]): 17.2%; Activity (Escherichia coli [17]): Active; MIC (Pseudomonas aeruginosa [10]): 8 µg/mL; Activity (HEK293 [18]): Non-Toxic; Activity (Cell membrane [19]): 14.7%; Activity (HEK293 [13]): Non-Toxic; Activity (Pseudomonas aeruginosa [20]): Active; MIC (Klebsiella pneumoniae [15]): 1 µg/mL; Activity (Cell membrane [21]): 12.2%
CN(C)[C@@H]1C(O)=C(C(N)=O)C(=O)[C@@]2(O)C(O)=C3C(=O)c4c(O)cccc4[C@@](C)(O)[C@H]3C[C@@H]12 [TETRACYCLINE],32 µg/mL,16 µg/mL,8 µg/mL,0.25 µg/mL,–
NC[C@H]1O[C@H](O[C@H]2[C@H](O)[C@@H](O[C@H]3O[C@H](CO)[C@@H](O)[C@H](N)[C@H]3O)[C@H](N)C[C@@H]2N)[C@H](N)C[C@@H]1O [TOBRAMYCIN],0.5 µg/mL,16 µg/mL,8 µg/mL,0.5 µg/mL,–
CN[C@H](CC(C)C)C(=O)N[C@H]1C(=O)N[C@@H](CC(N)=O)C(=O)N[C@H]2C(=O)N[C@H]3C(=O)N[C@H](C(=O)N[C@H](C(=O)O)c4cc(O)cc(O)c4-c4cc3ccc4O)[C@H](O)c3ccc(c(Cl)c3)Oc3cc2cc(c3O[C@@H]2O[C@H](CO)[C@@H](O)[C@H](O)[C@H]2O[C@H]2C[C@](C)(N)[C@H](O)[C@H](C)O2)Oc2ccc(cc2Cl)[C@H]1O [VANCOMYCIN],256 µg/mL,256 µg/mL,256 µg/mL,–,–
